Data taken from publication PMC9409646 (Marine Drugs, 2022).

System: hα3β4 nAChRs
Format: cell-based, human

“Czon1107-G1R: Arg-scan analogue of Czon1107 (RFRSPCPPFC)” was tested, and the “inhibition of ACh-evoked current amplitude” value was ~ 50%.

In the case of “Czon1107-P8R: Arg-scan analogue of Czon1107 (GFRSPCPRFC)”, the “activity at hα3β4 nAChRs compared with wild-type Czon1107 (in words)” value is reported as “No significant change in activity”.

With “Czon1107-P7R: Arg-scan analogue of Czon1107 (GFRSPCRPFC)” the “inhibition of ACh-evoked current amplitude” value was ~ 50%.

“Czon1107-P5R: Arg-scan analogue of Czon1107 (GFRSRCPPFC)” was tested, and the “activity at hα3β4 nAChRs compared with wild-type Czon1107 (in words)” value was “No significant change in activity”.

In the case of “Czon1107-F9A: Ala-scan analogue of Czon1107 (GFRSPCPPAC)”, the “activity at hα3β4 nAChRs compared with wild-type Czon1107 (in words)” value is reported as “slight potency decrease”.
